The record followed here is US8487009B2, “1,2-diphenylethene derivatives for treatment of immune diseases” (Glaxo Group Limited, priority 2001, dated 2013).

Read-outs that look alike come from different tables or passages of the source.

The subject of experiment [1] is IFN-γ. Kind of experiment: IFN-γ production from Con A activated T-cells (ELISA). In kind it is cell-based, murine. Particulars: read-out: Concentration for 50% of inhibition of IFN-γ, IC50. Here is the method: (§1) To determine the effect of the inventive compounds on non-specific and specific antigen induced T-cell proliferation, compounds were tested at a range of concentrations as outlined by the following protocol: Murine lymph nodes were removed aseptically and cell suspensions were prepared in RPMI-1640. Single lymphocytes were isolated over Lymphocyte-M by centrifugation at 22° C. and 1800 g for 15 min, and then washed three times (500 g for 5 min at 22° C.). Adherent cells were depleted by cytoadherence to fibronectin-coated plastic culture dish (twice at 37° C. for 45 min). T-cells isolated by incubating cell suspensions in a nylon wool column for 2 h at 37° C. and use for subsequent experiments were greater than 95% viable, as determined by trypan blue exclusion. Feeder cells were prepared by treating BALB/C spleen cells with mitomycin C (50 μg/ml, for 20 min at 37° C.) followed by five times washing using a large volume of Hank's solution. C57BL/6 Responders (2×10^5) was incubated in duplicate with the mitomycin C treated BALB/C feeder cells (2×10^5) in 96-well, round-bottomed, microtitre plates (Costar Laboratories, Worcester, Mass.) with complete medium (RPMI 1640 with 25 mM Hepes and L-glutamine supplemented with […] 2-mercapto-ethanol, 10% fetal cow serum (FCS), 10,000 unit of penicillin, and 10 mg of streptomycin per 100 ml of medium) at 37° C., 5% CO2. After 96 h, the culture wells received [^3H]thymidine ([^3H]TdR; 1 μCi/well) and proliferation was assessed at 16 h by harvesting cells onto glass fiber filter paper and counting in a β-counter.
(§2) To determine the effect of inventive compounds on IL-2, IL-4 and IFN-γ production from activated T-cells, the following assays were performed using the protocol outlined above for T-cells. The T-cell was activated by concanavalin A (Con A) and incubated, cytokines in the supernatants were assayed by commercial immune-linked immunosorbent assay (ELISA) kits.
In general terms: In an ELISA, binding on a coated surface is turned into a signal by an enzyme label.

Experiment [2] concerns CD86 expression in murine macrophages. Kind of experiment: CD86 expression in murine macrophages (FACS). The class given is cell-based. Particulars: 10 μM, 24 h. From the text:
(§3) Macrophages are very important components of the host defense system, but they are also involved in the development of tissue injury during inflammation in some human disease. Efficient antagonists can block subsequent symptoms (skin redness, edema, pain and dysfunction) of inflammation. CD86 expression, nitric oxide and TNF-α production are experimental indicators of macrophage function in vivo. CD86 expression by antigen presenting cells, including dendritic cells, macrophages and activated B cells, is necessary for interaction with T-cell CD28, which is necessary for T-cells to be fully activated. Nitric oxide is a potent microbiological macrophage product. TNF-α is a pro-inflammatory cytokine important in recruitment and stimulation of inflammatory cells. The effect of inventive compounds on the TNF-α production by macrophage cells was tested using the following protocol: Murine macrophage cells were lifted from adherent culture and resuspended in 10% FCS in DMEM. Cells (5×10^4/well) were aliquoted into flat bottom, tissue culture-treated microtitre plates and lipolysaccharide, N-acetylcysteine, test compound or vehicle controls were added. The cells were incubated at 37° C., 5% CO2 for 24 h and the culture supernatant removed for TNF-α ELISA, and CD86 expression was determined by FACS analysis on flow cytometer.

In experiment [3] the test system is T-cell proliferation. Description: T-cell proliferation ([3H]thymidine uptake, C57BL/6 responders with mitomycin C treated BALB/C feeder cells). The class given is cell-based. Particulars: murine T-cells, read-out: Concentration that provides 50% inhibition of T-cell proliferation, IC50. How it is done:
T-cell assay is commonly employed as a primary platform for testing of activities that modulate immune and inflammatory activities in many diseases. Assays of antigen non-specific T-cell proliferation and antigen-specific proliferation are often used in the tests.
as §1

The subject of experiment [4] is TNF-α production. Kind of experiment: TNF-α production by macrophage cells (ELISA). The class given is cell-based. Particulars: murine macrophage cells, 24 h; for Effect on TNF-α production, % of control: 10 μM; for activity at 10 µM: Mus musculus, read-out: Effect on TNF-α production, % of control.
From the text: as §3

Experiment [5] relates to IL-2 production. Description: IL-2 production from Con A activated T-cells (ELISA). Particulars: read-out: Inhibitory activity against IL-2 production, IC50. In kind it is cell-based, murine. How it is done:
as §1, §2

Experiment [6] has as its system induced edema in Balb/c mouse. Description: TPA induced mouse ear edema model. The class given is in vivo. Particulars: single topical administration. Here is the method:
Briefly, Balb/c mouse ear edema was induced by phorbol-12-myristate-13-acetate (TPA) by adding 20 ul of 0.01% (w/v) to the right ear of each mouse. Each test compound dissolved in the same vehicle (ethanol) as TPA was applied separately to the right ear of each moue. The mouse ear edema of each test compound was compared with that of the TPA and expressed as % of inhibition.

The subject of experiment [7] is crystal induced neutrophil activation. Description: Crystal (calcium pyrophosphate dihydrate) induced neutrophil activation, chemoluminescence. The class given is cell-based, human. Particulars: 25 μM. Here is the method: (§4) Neutrophils predominate over other cell types in many variants of acute and chronic inflammatory condition. Effect of the inventive compounds was tested on human neutrophil activation by chemoattractant [N-formyl-methionyl-luecyl-phenylalanine (FMPL)] and crystal (calcium pyrophosphate dihydrate) using an established protocol (Tudan, C. 1999. Biochem. Pharmacol 58:1869-1880).
(§5) Neutrophils were prepared from freshly collected human citrated whole blood. Briefly, 400 ml of blood were mixed with 80 ml of 4% dextran in Hanks buffered saline solution (HBSS) pH 7.4 and allowed to settle for 1 hour. Plasma was collected continuously and 5 ml applied to 5 ml of Ficoll Paque (Pharmacia) in 15 ml polypropylene tubes. Following centrifugation at 500 g for 30 minutes, the neutrophil pellets were washed free of erythrocytes by 20 seconds of hypotonic shock. Neutrophils were resuspended in HBSS, kept on ice and used for experiments within 3 h. Neutrophil viability and purity was always greater than 90%. Solutions of test compounds were added to neutrophils at 5,000,000 cells per ml under mild vortexing. Cells were incubated for 20 minutes at 33° C. then for 10 minutes at 37° C. before addition to crystals or chemoattractants for neutrophil activation. Chemoluminescence was monitored using an luminometer at 37° C.

In experiment [8] the test system is FMLP induced neutrophil activation. Kind of experiment: FMLP induced neutrophil activation, chemoluminescence. Particulars: Homo sapiens, read-out: FMLP induced neutrophil activation, Chemoluminescence (mV), % of control. In kind it is cell-based. How it is done:
as §4, §5

Experiment [9] has as its system histamine release by mast cells. Kind of experiment: Histamine release by mast cells derived from mouse bone marrow (hexosamindase activity). In kind it is cell-based. The following applies: Mast cell, read-out: Effect on histamine release by mast cells, IC50. How it is done: Histamine is an important mediator and is involved in a wide range of biological activities, including inflammation and allergy. The activity of representative compounds, against histamine release was tested using a standard mast cell assay (Arquardt, C. et al. 1986. Am Rev Respir Dis 133:1105-1109). The mast cells were derived from mouse bone marrow. The histamine release was measured by the hexosamindase activity.

Consider `CC(C)c1c(O)cc(C=C(c2ccccc2)c2ccccc2)cc1O` [5-(2,2-Diphenylethenyl)-2-i-propyl-1,3-benzenediol], for which, in experiment [1] (Mus musculus, T-cell), the IC50 was 1710 nM. The “Effect on CD86 expression in murine macrophages, % of control” value (“Effect on CD86 expression … % of control” below) in experiment [2] came out at 10%.

For `CC(=Cc1ccccc1)c1cc(O)c(C(C)C)c(O)c1` [5-(1-Methyl-2-phenylethenyl)-2-i-propyl-1,3-benzenediol], the IC50 came out at 1490 nM in experiment [3] (Mus musculus, T-cell) and 1620 nM in experiment [1] (Mus musculus, T-cell). The “Effect on CD86 expression … % of control” value in experiment [2] is on record as 0%.

For `CC(C)c1c(O)cc(C=Cc2ccccn2)cc1O.Cl` [2-[2-(3.5-Dihydroxy-4-i-propylphenyl)ethenyl]pyridine hydrochloride], in experiment [3], the IC50 was determined as 2090 nM. Also, the “Effect on TNF-α production, % of control” value in [4] was determined as 75%. Also, the “Effect on CD86 expression … % of control” value in [2] was 88%.

In the case of `CC(C)c1c(O)cc(C(C#N)=Cc2ccccc2)cc1O` [2-(3,5-Dihydroxy-4-i-propylphenyl)-3-phenylpropenylnitrile], the IC50 in experiment [3] turned out to be 3500 nM; in experiment [5], 130 nM; in experiment [1], 860 nM. Besides, in experiment [4], the “Effect on TNF-α production, % of control” value is on record as 60%. The “% inhibition of edema” value in experiment [6] is recorded as 85.2%.

As to `CC(=Cc1cc(O)c(C(C)C)c(O)c1)c1ccccc1` [5-(2-Methyl-2-phenylethenyl)-2-i-propyl-1,3-benzenediol], the IC50 was found to be 1150 nM in experiment [3] (Mus musculus, T-cell) and 400 nM in experiment [5] (Mus musculus, T-cell). The “Effect on CD86 expression … % of control” value in [2] came out at 51%. In addition, the “Crystal induced neutrophil activation, chemoluminescence (mV) as % of the control” value in [7] (time 1 minute) came to 23%; in experiment [7] (time 2 minutes), 10%; in experiment [7] (time 3 minutes), 7%; in experiment [7] (time 4 minutes), 6%; in [7] (time 5 minutes) it was 6%; in [7] (time 7 minutes) it was 16%. Further, in experiment [7] (time 10 minutes), the “Crystal induced neutrophil activation, chemoluminescence (mV) as % of the control” value is reported as 29%. In addition, the activity at 25 µM in experiment [8] is 30%.

`CC(C)c1c(O)cc(C=Cc2cccs2)cc1O` [2-i-Propyl-5-(2-thiophene-2-ylethenyl)-1,3-benzenediol]: the IC50 in experiment [3] (Mus musculus, T-cell) was found to be 5160 nM; in experiment [5] (Mus musculus, T-cell) it was 28 nM; in experiment [1] (Mus musculus, T-cell) it was 80 nM; in [9] it was 18900 nM. Further, in experiment [4], the activity at 10 µM stood at 50%. Moreover, the “Effect on CD86 expression … % of control” value in experiment [2] was 2%.

Consider `CC(C)c1c(O)cc(C=C(C#N)c2ccccc2)cc1O` [3-(3,5-Dihydroxy-4-i-propylphenyl)-2-phenylpropenylnitrile], for which the IC50 in [3] was 1810 nM; in experiment [1], 710 nM. The “Effect on CD86 expression … % of control” value in experiment [2] came to 16%.

In the case of `CC(=Cc1cc(O)cc(O)c1)c1ccccc1` [5-(2-Methyl-2-phenylethenyl)-1,3-benzenediol], the IC50 is 4650 nM in experiment [3] (Mus musculus, T-cell) and 1790 nM in experiment [5] (Mus musculus, T-cell). In addition, the activity at 10 µM in experiment [4] came to 42%. Further, in [2], the “Effect on CD86 expression … % of control” value is 90%.

As for `C=C1/C(=C\C=C2/CCC[C@]3(C)[C@@H]([C@H](C)CCCC(C)(C)O)CC[C@@H]23)C[C@@H](O)C[C@@H]1O` [calcitriol, reference compound], the “% inhibition of edema” value in experiment [6] (0.01% calcitriol) was found to be 31.2%.
